Legend:
Gbe^ys/ys mice = test: In vivo metabolism in metabolic cages; details: 9 months old mice
Procedure: FIGS. 3A-3I include a graph of the effect of Compound 1 on in vivo metabolism; mice were monitored by the Promethion High-Definition Behavioral Phenotyping System (Sable Instruments, Inc.) over a 24 hr period. Effective mass was calculated by power of 0.75. Data are mean±SEM from n=11 9 months old mice in the wt. control vehicle arm, n=6 9 months old mice in the GBE^ys/ys vehicle arm and n=7 9 months old mice in the Gbe^ys/ys 144DG11 (Compound 1)-treated arm. All injections were from the age of 4 months. […] Blood metabolic panel based on n=5, 9.5 months old mice treated as indicated (3I). Blood glucose was increased, and blood triglycerides decreased in Gbe^ys/ys […] by Compound 1 (p<0.05, Student's t-tests). *p<0.05 v wt. controls, #p<0.05 v GBE^ys/ys vehicle treated mice;
The effect of Compound 1 on various metabolic parameters was determined in vivo using metabolic cages. Fuel preference at the whole animal level is determined by the respiratory quotient (RQ, the ratio of CO2 produced to O2 consumed). Lower RQ indicates higher fat burn, while higher RQ indicates higher carbohydrate burn. […] Stimulation of ambulatory activity (FIG. 3E) and of meal size and water intake (FIGS. 3F-3H) are in line with this observation of stimulation of carbohydrate catabolism in affected animals by Compound 1. Moreover, put together, the increased fuel burning, and food intake indicate that Compound 1 can improve metabolic efficiency in the affected animals.

[1] = tested on: APBD and HC skin fibroblasts; test: Image-based phenotyping (IBP); type: cell-based, human
Text: FIGS. 7A-7F include graphs of IBP parameters in HC and APBD fibroblasts and variable importance plot as an output of the random forest classification performed on the different variables (cell features) indicated on the x-axis. […] The different comparisons analyzed (comp A=Compound 1) are shown (7B); bar graphs of lysosomal parameters affected by Compound 1 in APBD and HC cells as analyzed by IBP (7C); Volcano plots of the proteins affected by APBD and Compound 1 under starvation and glycogen burden conditions (7D); Venn diagrams of proteins down-modulated by APBD and up modulated by Compound 1 and vice versa under starvation (48) and glycogen burden (48+24) conditions (7E); and gene ontology of proteins up-modulated (left) and down-modulated (right) by Compound 1 (7F).
APBD skin fibroblasts were seeded at 1,000 cells/well and cultured in specialized microscopy-grade 96-well plates (Grenier Bio-One, Germany). Following the different treatments, a mix of Thermo Scientific cellular fluorescent dyes in PBS was added to each well for 30 min at 37° C. in a 5% CO2 incubator. This mix (FIGS. 4C and 7B) included DAPI (1 μg/ml, nuclear (DNA) stain), MitoTracker Green (500 nM, potential-independent mitochondrial stain), TMRE ([…] mitochondrial stain), and Cell Mask Deep Red (0.5 μg/ml, cytosol stain). In FIG. 7C, only lysosomes were stained with LysoTracker Deep Red (75 nM). Cells were then fixed with 4% paraformaldehyde (PFA), washed with PBS and plates were transferred to an InCell2200 (GE Healthcare, U.K.) machine for image acquisition at 40× magnification. The output produced was based on comparative fluorescence intensity. Object segmentation was carried out using multi-target analysis in the GE analysis workstation to identify the nuclei and cell boundary. […]
As a first step, the inventors required a classification method, both wholistic and feature-specific, which would enable to quantify differences between APBD and HC cells and thus to estimate the restorative effect of Compound 1 on APBD cells. […]

[2] = tested on: skin fibroblasts derived from Gsd1a patients; test: NAD+/NADH ratio, Sirt1 and p62 expression; type: cell-based, human; details: 50 μM, 24 h
Procedure: FIG. 21 includes vertical bar graphs showing skin fibroblasts derived from Gsd1a patients were treated with solvent or 50 μM Compound A for 24 h and analyzed for NAD+/NADH ratio by the Promega kit (left panel) and for Sirt1 (middle panel) and p62 (right panel) expression by western immunoblotting.
NAD+ and NADH are key precursors for the electron transfer chain, TCA cycle, glycolysis, amino acid synthesis, fatty acid synthesis, and nucleotide synthesis. The NAD+/NADH ratio reports the extent of overall catabolism and the balance between glycolysis and OxPhos. The increase in the NAD+/NADH ratio means acceleration of electron flow in the mitochondrial electron transport chain (note, not mitochondrial ATP production) and of glycolysis to better manage metabolic demands. Furthermore, Sirt1 induction, often associated with increased NAD+/NADH ratio, is a well-documented and innovative anti-aging, calorie restriction-mimic and anti-cancer therapeutic strategy (see for example Hyun et al., (2020)). Thus, the results in Gsd1a cells (FIG. 21), showing induction of the NAD+/NADH ratio, as well as Sirt1, indicate that 144DG11 is a promising therapy for a plethora of different metabolic disorders, aging-related complications, and cancer.

`COCCN(Cc1sccc1C)C(=O)c1cc(C)nc(O)c1` [Compound 1] was tested, and the ambulatory activity (Gbe^ys/ys mice) was “Stimulation”, the “carbohydrate burning at the expense of fat burning” value (Gbe^ys/ys mice) was “increases” and the “meal size and water intake” value (Gbe^ys/ys mice) was “Stimulation”. For the same compound, the total energy expenditure (Gbe^ys/ys mice) was “increases”, the “respiratory quotient (RQ)” value (Gbe^ys/ys mice; injections from age 4 months) was “increased RQ to even higher levels than those of the wild type (wt) animals” and the “IBP signature, features affected” value [1] was “mostly affected nuclear and mitochondrial membrane potential (TMRE) parameters”. The lysosomal size ([1]; APBD cells) was “reduced lysosomal size”, the “mitochondrial membrane potential (MMP)” value ([1]; APBD cells) was “hyperpolarized” and the “NAD+/NADH ratio” value [2] was “induction”. The Sirt1 expression [2] was “induction” and the p62 expression [2] was “downmodulated”.

Reference: patent US20240139167A1, “LYSOSOME-ASSOCIATED MEMBRANE PROTEIN TARGETING COMPOUNDS AND USES THEREOF” (HADASIT MEDICAL RESEARCH SERVICES AND DEVELOPMENT LTD., priority 2021, published 2024)
